Measured values from patent US10532066B2, “Surfactant lipids, compositions thereof, and uses thereof” (National Jewish Health, priority 2007, dated 2020).

Key:
[1] = test system: primary rat alveolar macrophages; test: LPS-induced NO production by rat alveolar macrophages; assay type: cell-based; details: LPS 10 ng/ml, 24 h, liposomes; LPS without phospholipid = 100%
Experimental: (§1) FIG. 1. Anionic phospholipids inhibit inflammatory mediator production induced by LPS. Liposomes composed of sphingomyelin (SM), phosphatidylethanolamine (PE) dipalmitoyl-phosphatidylcholine ((DPPC), phosphatidylserine (PS), palmitoyl-oleoyl-phosphatidylglycerol (POPG) and phosphatidylinositol (PI) were formed by bath-sonication for 30 min at room temperature. LPS (10 ng/ml) and different concentrations of phospholipids were added to monolayer cultures of differentiated U937 cells (A), or primary rat alveolar macrophages (B). At 6 h after stimulation, media were collected and secreted TNF-α levels were determined in U937 cultures. NO production was determined 24 h after stimulating rat alveolar macrophages. LPS stimulation in the absence of phospholipid was set as 100%. […] The average TNF-α production upon LPS stimulation was (8.0±0.54 ng/ml). The average NO production upon LPS stimulation was 12.17±0.27 μM.
(§2) FIG. 2. The inhibitory effect of phosphatidylglycerols on LPS-induced inflammatory mediator production is molecular species specific. PG liposomes were formed by bath-sonication for 30 min at room temperature. LPS (10 ng/ml) and different concentrations of PG were added to monolayer cultures of differentiated U937 cells (A) or rat alveolar macrophages (B). Media TNF-α measurements were performed 6 h after stimulation. Media NO measurements were performed 24 h after stimulation. LPS stimulation without PG was set at 100%. The molecular species of PG shown on the graph are 8:0; dioctanoyl-phosphatidylglycerol, 12:0; dilauroyl-phosphatidylglycerol (DLPG), 14:0; dimyristoyl-phosphatidylglycerol (DMPG), 16:0; dipalmitoyl-phosphatidylglycerol (DPPG), 18:0; distearoyl-phosphatidylglycerol, 16:0/18:1; palmitoyl-oleoyl-phosphatidylglycerol (POPG). […] The average TNF-α production upon LPS stimulation was 11.3±0.7 ng/ml. The average NO production upon LPS stimulation was 10.1±0.6 μM.
Rat alveolar macrophages were isolated from bronchoalveolar lavage fluid (BALF) of Sprague-Dawley rats. The lungs were lavaged with pyrogen-free saline, and alveolar macrophages were sedimented by centrifugation at 150×g×5 min. Isolated macrophages were plated at 5×10^5 cells/well in 24-well plates (Falcon) in RPMI 1640 medium containing 10% BGS. The cells were allowed to adhere for 2 h and then used for the experiments after washing with phosphate-buffered-saline (PBS) to remove the unattached cells.
Nitric oxide (NO) accumulation in the supernatant was determined as previously reported (28). Briefly, rat alveolar macrophages were stimulated with LPS (10 ng/ml) or LPS plus phospholipids for 24 h. Culture supernatants (usually […]) were combined with an equal volume of Greiss reagent, and the samples were incubated at room temperature for 10 min before the absorbance was quantified at 550 nm. With the use of a standard curve, the nmol of NO produced were determined and normalized to total cell number in each sample.

[2] = test system: differentiated U937 cells; test: LPS-induced TNF-α secretion by differentiated U937 cells; assay type: cell-based, human; details: LPS 10 ng/ml, 6 h, liposomes; LPS without phospholipid = 100%
Experimental: as §1, §2
FIG. 3. […] Surfactant lipid (SL) and POPG were dried under nitrogen, and hydrated at 37° C. for 1 h. (A) SL and POPG were mixed in organic solvents prior to drying and hydrating and subsequently liposomes were produced. (B) SL and POPG were made as independent populations of liposomes that were subsequently mixed prior to macrophage treatment. 10 ng/ml of LPS and different concentrations of liposome mixtures were added to monolayer cultures of differentiated U937 cells. 6 h after stimulation, media were collected and TNF-α production was determined. LPS stimulation without phospholipid was set as 100%. […] The average TNF-α production upon LPS stimulation was 7.0±0.2 ng/ml.
U937 cells were induced to differentiate by treatment with 10 nM phorbol myristate acetate (PMA) for 48 h. The cells (1.3×10^5/well) were placed in 96-well plates and further incubated in the absence of PMA for 24 h in RPMI 1640 medium containing 10% BGS. Rat alveolar macrophages (5×10^5/well) were incubated in 24-well plates for 2 h after isolation. The indicated concentration of phospholipids was added to the cultures 30 min before adding LPS. After LPS addition cultures were incubated for 6 h at 37° C. at an atmosphere of 95% air and 5% CO2. At the end of the incubation period the medium was collected and assayed for TNF-α concentrations using an ELISA kit.
Surfactant lipids were isolated from the bronchioalveolar lavage of Sprague-Dawley rats, 28 days after intratracheal instillation of 25 mg of silica (˜125 mg/kg). Initially, the surfactant was purified by the method of Hawgood et. al. (25) using NaBr density gradient centrifugation. The purified surfactant was extracted with butanol (26) and segregated into butanol-soluble and -insoluble material.

U937 macrophages = test: TNFα in U937 macrophages stimulated with smooth LPS, with SP-A and PtdGro; assay type: cell-based; details: 100 ng/ml smooth LPS, 6 hours, lipid 20 μg/ml
Experimental: U937 macrophages were stimulated with 100 ng/ml smooth LPS for 6 hours. The culture medium was harvested and assayed for the presence of TNFα by ELISA. Control cultures received no additions. SP-A was added as indicated at 10 μg/ml. Saturated-(16:0/16:0)-PtdGro was added at 20 μg/ml. Unsaturated-(18:1/18:1)-PtdGro was added at 20 μg/ml.

Row | Compound | LPS-induced NO production [1] | LPS-induced TNF-α production [2] | anti-inflammatory effects on LPS stimulated macrophages (TNFα) (U937 macrophages)
1 | phosphatidylserine [PS] | less effective than PI and POPG | less effective than PI and POPG | 
2 | CCCCCCCCCCCCCCCCCC(=O)OCC(COP(=O)(O)OCC(O)CO)OC(=O)CCCCCCCCCCCCCCCCC (stereo not drawn) [18:0, distearoyl-phosphatidylglycerol] | failed to antagonize | failed to antagonize | 
3 | CCCCCCCC(=O)OCC(COP(=O)(O)OCC(O)CO)OC(=O)CCCCCCC (stereo not drawn) [8:0, dioctanoyl-phosphatidylglycerol] | failed to antagonize | failed to antagonize | 
4 | phosphatidylethanolamine [PE] | no significant effect | no significant effect | 
5 | CCCCCCCCCCCC(=O)OCC(COP(=O)(O)OCC(O)CO)OC(=O)CCCCCCCCCCC (stereo not drawn) [12:0, dilauroyl-phosphatidylglycerol] |  | modest antagonists | 
6 | CCCCCCCC/C=C\CCCCCCCC(=O)OC[C@H](COP(=O)(O)OCC(O)CO)OC(=O)CCCCCCC/C=C\CCCCCCCC (stereo partly drawn) [unsaturated-PtdGro, dioleoyl-phosphatidylglycerol] |  |  | potent anti-inflammatory effects
7 | sphingomyelin [SM] | no significant effect | no significant effect | 
